Values quoted from earlier work, collected in patent US10792481B2, “Implantable drug delivery device” (Nano Precision Medical, Inc., priority 2014, dated 2020).

Details: 37° C., 0.2 atmosphere partial pressure

Compound: O=O [oxygen]
- solubility of oxygen in water: about 7 mg/liter
